The record followed here is PMC3493683 (Journal of medicinal chemistry, 2012).

The target in this assay is recombinant β-secretase (memapsin 2, BACE 1) (Homo sapiens, UniProt P56817). Description: BACE 1 inhibitory activity against recombinant β-secretase. It counts as biochemical. Particulars: for BACE 1 inhibitory activity (in words): recombinant β-secretase.
recombinant β-secretase (memapsin 2, BACE 1), sequence (P56817 46-501): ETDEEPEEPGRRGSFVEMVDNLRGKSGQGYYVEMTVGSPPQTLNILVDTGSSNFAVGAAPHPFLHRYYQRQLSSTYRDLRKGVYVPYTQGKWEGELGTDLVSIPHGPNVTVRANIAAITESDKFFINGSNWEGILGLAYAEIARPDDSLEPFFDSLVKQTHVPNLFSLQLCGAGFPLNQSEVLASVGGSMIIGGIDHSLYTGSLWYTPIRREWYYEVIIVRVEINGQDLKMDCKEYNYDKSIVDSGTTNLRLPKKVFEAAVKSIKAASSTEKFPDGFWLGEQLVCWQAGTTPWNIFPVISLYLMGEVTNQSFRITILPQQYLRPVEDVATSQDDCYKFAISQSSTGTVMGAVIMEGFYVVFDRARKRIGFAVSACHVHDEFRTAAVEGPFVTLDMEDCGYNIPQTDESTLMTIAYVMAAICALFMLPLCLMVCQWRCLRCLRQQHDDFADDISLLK

Consider `CC(C)CN(C)C(=O)[C@@H](NC[C@H](Cc1ccccc1)NC(=O)c1cc(C(=O)N[C@H](C)c2ccccc2)cc(N(C)S(C)(=O)=O)c1)[C@H](C)O` [Inhibitor 7], for which the “BACE 1 inhibitory activity (in words)” value is “abolished all BACE 1 inhibitory activity”.

With `CC(C)CNC[C@@H](NC[C@H](Cc1ccccc1)NC(=O)c1cc(C(=O)N[C@H](C)c2ccccc2)cc(N(C)S(C)(=O)=O)c1)[C@H](C)O` [Inhibitor 9], the “BACE 1 inhibitory activity (in words)” value is recorded as “total loss in potency”.

Take `CCC[C@H](O)[C@H](NC[C@H](Cc1ccccc1)NC(=O)c1cc2c3c(c1)c(CC)cn3CCS(=O)(=O)N2C)C(=O)NCC(C)C` [Inhibitor 19]: the “improvement in the potency (BACE 1)” value (compared with inhibitor 18) is listed as “around 18 fold”.

As to `CCC[C@H](O)[C@H](NC[C@H](Cc1ccccc1)NC(=O)c1cc2c3c(c1)c(CC)cn3CC(C)(C)S(=O)(=O)N2C)C(=O)NCC(C)C` [Inhibitor 20], the “potency enhancement (BACE 1)” value (over unsubstituted inhibitor 19) is on record as more than 10 fold.
